Assay results reported in patent US20230024283A1, “HERBICIDAL COMPOUNDS” (SYNGENTA CROP PROTECTION AG, priority 2020, published 2023).

Columns and labels:
Assay in all cases: Post-emergence herbicidal glasshouse test
Assay type in all cases: in vivo
Conditions in all cases: post-emergence spray, evaluated after 13 days, five-point scale
[1] = test system: Abutilon theophrasti (ABUTH)
Description: (§1) Seeds of a variety of test species are sown in standard soil in pots (Ipomoea hederacea (IPOHE), Abutilon theophrasti (ABUTH), Amaranthus retoflexus (AMARE), Echinochloa crus-galli (ECHCG), Setaria faberi (SETFA)). After 8 days cultivation under controlled conditions in a glasshouse (at 24/16° C., day/night; 14 hours light; 65% humidity), the plants are sprayed with an aqueous spray solution derived from the formulation of the technical active ingredient in acetone / water (50:50) solution containing 0.5% Tween 20 (polyoxyethelyene sorbitan monolaurate, CAS RN 9005-64-5). Compounds are applied at 1000 g/ha unless otherwise stated. The test plants are then grown in a glasshouse under controlled conditions in a glasshouse (at 24/16° C., day/night; 14 hours light; 65% humidity) and watered twice daily. After 13 days the test is evaluated for the percentage damage caused to the plant. The biological activities are shown in the following table on a five-point scale (5=81-100%; 4=61-80%; 3=41-60%; 2=21-40%; 1=0-20%).

[2] = test system: Amaranthus retoflexus (AMARE)
Description: as §1

[3] = test system: Echinochloa crus-galli (ECHCG)
Description: as §1

[4] = test system: Ipomoea hederacea (IPOHE)
Description: as §1

[5] = test system: Setaria faberi (SETFA)
Description: as §1

SMILES | percentage damage caused to the plant, ABUTH ([1]; 1000 g/ha) | percentage damage caused to the plant, AMARE ([2]; 1000 g/ha) | percentage damage caused to the plant, ECHCG ([3]; 1000 g/ha) | percentage damage caused to the plant, IPOHE ([4]; 1000 g/ha) | percentage damage caused to the plant, SETFA ([5]; 1000 g/ha) | percentage damage caused to the plant, ABUTH ([1]; applied at 500 gai/ha) | percentage damage caused to the plant, AMARE ([2]; applied at 500 gai/ha) | percentage damage caused to the plant, ECHCG ([3]; applied at 500 gai/ha) | percentage damage caused to the plant, IPOHE ([4]; applied at 500 gai/ha) | percentage damage caused to the plant, SETFA ([5]; applied at 500 gai/ha)
N#Cc1cc(Br)c(O)c(-c2ccc(F)cc2)c1 [Compound 1.048] | 5 (5=81-100%) | 5 (5=81-100%) | 2 (2=21-40%) | 2 (2=21-40%) | 2 (2=21-40%) | – | – | – | – | –
CC(C)C(=O)Oc1c(Cl)cc(C#N)cc1-c1cccc(F)c1 [Compound 2.006] | 4 (4=61-80%) | 3 (3=41-60%) | 1 (1=0-20%) | 1 (1=0-20%) | 1 (1=0-20%) | – | – | – | – | –
N#Cc1cc(-c2cccc(OC(F)(F)F)c2)c(O)c(C(F)(F)F)c1 [Compound 1.165] | 1 (1=0-20%) | 3 (3=41-60%) | 1 (1=0-20%) | 4 (4=61-80%) | 1 (1=0-20%) | – | – | – | – | –
N#Cc1cc(Br)c(O)c(-c2cccc(F)c2)c1 [Compound 1.046, 3-bromo-5-(3-fluorophenyl)-4-hydroxy-benzonitrile] | 5 (5=81-100%) | 5 (5=81-100%) | 2 (2=21-40%) | 3 (3=41-60%) | 3 (3=41-60%) | – | – | – | – | –
N#Cc1cc(-c2ccc(OC(F)(F)F)cc2)c(O)c(C(F)(F)F)c1 [Compound 1.151] | 1 (1=0-20%) | 5 (5=81-100%) | 1 (1=0-20%) | 3 (3=41-60%) | 1 (1=0-20%) | – | – | – | – | –
N#Cc1cc(-n2cc(Cl)c(C3CC3)n2)c(O)c(C(F)(F)F)c1 [Compound 1.259] | 3 (3=41-60%) | 5 (5=81-100%) | 2 (2=21-40%) | 5 (5=81-100%) | 2 (2=21-40%) | – | – | – | – | –
N#Cc1cccc(-c2cc(C#N)cc(Br)c2O)c1 [Compound 1.053] | 2 (2=21-40%) | 5 (5=81-100%) | 1 (1=0-20%) | 3 (3=41-60%) | 1 (1=0-20%) | – | – | – | – | –
N#Cc1cc(Br)c(O)c(-c2cncnc2)c1 [Compound 1.044] | 5 (5=81-100%) | 5 (5=81-100%) | 2 (2=21-40%) | 1 (1=0-20%) | 3 (3=41-60%) | – | – | – | – | –
N#Cc1cc(-c2cc(F)cc(Cl)c2)c(O)c(C(F)(F)F)c1 [Compound 1.148] | – | – | – | – | – | 1 (1=0-20%) | 3 (3=41-60%) | 1 (1=0-20%) | 4 (4=61-80%) | 1 (1=0-20%)
N#Cc1cc(OC(F)(F)F)c(O)c(-c2cccc(F)c2)c1 [Compound 1.002] | 4 (4=61-80%) | 5 (5=81-100%) | 3 (3=41-60%) | 5 (5=81-100%) | 2 (2=21-40%) | – | – | – | – | –
N#Cc1cc(-c2cc(F)cc(F)c2)c(O)c(C(F)(F)F)c1 [Compound 1.183] | 4 (4=61-80%) | 5 (5=81-100%) | 2 (2=21-40%) | 2 (2=21-40%) | 2 (2=21-40%) | – | – | – | – | –
N#Cc1cc(-c2ccnc(C(F)(F)F)c2)c(O)c(C(F)(F)F)c1 [Compound 1.158] | 1 (1=0-20%) | 4 (4=61-80%) | 1 (1=0-20%) | 2 (2=21-40%) | 1 (1=0-20%) | – | – | – | – | –
N#Cc1cc(-c2cccc(F)c2)c(O)c(C(F)(F)F)c1 [Compound 1.005] | 5 (5=81-100%) | 4 (4=61-80%) | 4 (4=61-80%) | 5 (5=81-100%) | 1 (1=0-20%) | – | – | – | – | –
N#Cc1cncc(-c2cc(C#N)cc(Br)c2O)c1 [Compound 1.067] | 3 (3=41-60%) | 1 (1=0-20%) | 2 (2=21-40%) | 2 (2=21-40%) | 2 (2=21-40%) | – | – | – | – | –
N#Cc1cc(-n2cc(Cl)c(C(F)F)n2)c(O)c(C(F)(F)F)c1 [Compound 1.250] | 2 (2=21-40%) | 5 (5=81-100%) | 2 (2=21-40%) | 5 (5=81-100%) | 2 (2=21-40%) | – | – | – | – | –
N#Cc1cc(Br)c(O)c(-c2ccc(C(F)(F)F)cc2)c1 [Compound 1.058] | 1 (1=0-20%) | 5 (5=81-100%) | 2 (2=21-40%) | 2 (2=21-40%) | 3 (3=41-60%) | – | – | – | – | –
N#Cc1cc(Br)c(O)c(-c2ccc(F)c(F)c2)c1 [Compound 1.130] | 5 (5=81-100%) | 5 (5=81-100%) | 1 (1=0-20%) | 2 (2=21-40%) | 1 (1=0-20%) | – | – | – | – | –
N#Cc1cc(-c2cccc(F)c2)c(O)c([N+](=O)[O-])c1 [Compound 1.191] | 4 (4=61-80%) | 5 (5=81-100%) | 2 (2=21-40%) | 3 (3=41-60%) | 2 (2=21-40%) | – | – | – | – | –
Cc1cn(-c2cc(C#N)cc(C(F)(F)F)c2O)nc1C(F)(F)F [Compound 1.187] | 1 (1=0-20%) | 5 (5=81-100%) | 1 (1=0-20%) | 1 (1=0-20%) | 1 (1=0-20%) | – | – | – | – | –
N#Cc1cc(C#N)c(O)c(-c2cccc(F)c2)c1 [Compound 1.194] | 3 (3=41-60%) | 2 (2=21-40%) | 1 (1=0-20%) | 3 (3=41-60%) | 2 (2=21-40%) | – | – | – | – | –
N#Cc1cc(Br)c(O)c(-c2cccs2)c1 [Compound 1.134] | 4 (4=61-80%) | 4 (4=61-80%) | 1 (1=0-20%) | 4 (4=61-80%) | 1 (1=0-20%) | – | – | – | – | –
